Test results taken from patent US12168033B2, “Synergistic composition for osteoarthritis” (LAILA NUTRACEUTICALS, priority 2014, dated 2024).

Test system: Adjuvant Induced Arthritis
Assay: Adjuvant Induced Arthritis in Sprague Dawley rats, Complete Freund's Adjuvant, 20 days (Example 20)
Format: in vivo
Excerpt: Sprague Dawley Rats were housed in solid bottom autoclaved polypropylene cages at three rats per cage with stainless steel top grill. Animals were provided with rodent pellet feed and mineral water ad libitum. The animals were acclimatized for a period of 3 days prior to enrollment into the experiment and they are habituated/adapted to the experimenter and to the experimental conditions for measurement of hind limb weight bearing capacity in the Incapacitance meter. A group of 35 animals were examined and 30 healthy SD rats were selected for the study and were randomly assigned to one of five different groups based on the paw volume, i.e., normal control (G1), vehicle control (G2), two groups (G3 & G4) supplemented with test substances composition-11 (200 mg 400 mg) and with reference drug prednisolone 10 mg/kg (G5). After 7 days administration of test item, reference item or vehicle, on day 8 arthritis was induced in rats of all groups except G1 by a single subcutaneous injection of 50 μL Complete Freund's Adjuvant (Sigma-Aldrich, USA), into the sub plantar region of left hind limb. Control group animals were injected with 0.1 mL normal saline (0.9% w/v sodium chloride). The vehicle, test items and reference drug were administered till completion of the study, i.e., 20 days. Paw volume was measured by a Plethysmometer (Pan Lab, LE7500) on day 0 (prior to treatment) and day 20. The difference between the final and initial paw volume was considered as edema volume. The in vivo anti-inflammatory responses of test compounds were estimated by calculating the percentage inhibition of paw edema when compared to the paw edema observed in the CMC supplemented control group. […] Percentage weight bearing capacity was measured in all the groups before induction and on 20th day of treatment using Incapacitance Meter (IITC Life Science Inc., CA).

C[C@]12C=CC(=O)C=C1CC[C@@H]1[C@@H]2[C@@H](O)C[C@@]2(C)[C@H]1CC[C@]2(O)C(=O)CO [Prednisolone, prednisolone]
Percent Weight Bearing on Left Hind Limb, Day-20 (10 mmp (prednisolone), Day-20, mean ± S.E.M, six rats): 49.88 ± 1.13% | Percent Weight Bearing on Left Hind Limb, Before Induction (10 mmp (prednisolone), before induction): 49.57 ± 0.55% | % inhibition of paw edema (prednisolone 10 mg/kg, day 20): 69.7%
